Like-named read-outs stand apart in the source and are kept apart here.
How the values were obtained:
[1] = system: antibody production (AFC) after Adriamycin immunosuppression; assay: Adriamycin-induced immunosuppression model, antibody (AFC) response to SRBC; format: in vivo, mice
Procedure: (§1) For induction of a primary humoral PFC response, C57BL/6J mice were immunized intraperitoneally with 0.1 ml of a 5% suspension of SRBC, containing 1×10^8 cells. On day 5 after immunization animals were sacrificed under deep ether anesthesia, spleens were dissected out and minced through a stainless steel mesh. Individual spleen cell suspensions were washed three times with Hank's BSS, nucleated cells number was determined with a haemocytometer, viability was assessed by exclusion of trypan blue and adjusted to 1×10^7 viable cells per ml in Medium 199 containing Earle's salts and L-glutamine.
(§2) For the PFC assay, suspensions containing 1×10^6 spleen cells, 1×10^9 SRBCs and guinea pig serum (diluted 1:10, a source of complement), were introduced into a Cunningham chambers (100 μl volume) and incubated for 1 h at 37° C. The number of hemolytic plaques, produced by anti-SRBC IgM secreting plasma cells, was counted using a light microscope, and the number of PFC determined for each mice was expressed per 1×10^6 spleen cells and per whole spleen.
Immunosupression in mice was induced by parentreral administration of Adriamycin or Cyclophosphamide. Mice were injected with Adriamycin intraperitoneally in a dose of 5 mg/kg one day before the immunization with SRBC. Cyclophosphamide was used in a dose of 100 mg/kg 24 hours before the antigen challenge with SRBC.
Even in this extreme situation, administration of 2-methyl-3-ethoxycarbonyl-4-(2-methoxyphenyl)-5-methoxy-(1-oxacyclopentene-2, example 6) in dose 2.5 mg/kg produces a nearly 3 folds increase in antibody levels. […] (See FIG. 8).

[2] = system: cellular immune response (T-cells response) to SRBC; assay: Delayed Type Hypersensitivity test (DTH), foot pad edema after SRBC challenge; format: in vivo, mice
Procedure: The method of Lagrange et al. was used. Mice were sensitized intravenously (iv) with 10^5 SRBC in saline. After 4 days, the mice were given eliciting dose of the antigen: 10^8 SRBS in 20 mcl of sterile saline into right hind paw, left hind paw was injected with 20 mcl of sterile saline. In 24 hours after challenge, the foot pad edema volume was measured using a caliper. The difference in volume (mcl) between the right paw (antigen-injected) and left paw (saline-injected) is calculated (Δ) and used as edema volume.

[3] = system: anti-SRBC IgM secreting plasma cells (antibody-forming cells, AFC); format: in vivo; details: for AFC number increase, % of control: mice immunized with SRBC
Excerpt: Humoral-mediated immune response is routinely measured using the antibody-forming cell (AFC) assay. Primarily used for evaluating humoral immunity, this assay, in fact, evaluates overall immune competence including T- and B-cell function, antigen processing and presentation. Sheep Red Blood Cells (SRBC) are the most common T-dependent antigen used for this assay.
Primary IgM response after SRBC administration was quantitatively estimated using a modified hemolytic plaque-forming cell assay
Since SRBC are T-dependent antigen, a normal AFC response depends on multiple factors: antigen processing and presentation actuated by macrophages, appropriate T-cell signalling, B-cells differentiation, and affinity maturation of antibodies in plasma cells.
as §1, §2

[4] = Administered dose related to LD50; format: in vivo; details: Levamisol dose 2.5 mg/kg
[5] = dose 10 mg/kg, mice sensitized with SRBC

Row | SMILES | DTH foot pad edema, % of control [2, 5] | AFC number increase, % of control ([3]; dose 2.5 mg/kg) | AFC number increase, % of control ([3]; dose 5 mg/kg) | AFC number increase, % of control ([3]; dose 10 mg/kg) | also measured
1 | COc1cccc2c1C(=O)c1c(O)c3c(c(O)c1C2=O)C[C@@](O)(C(=O)CO)C[C@@H]3O[C@H]1C[C@H](N)[C@H](O)[C@H](C)O1 [Adriamycin] |  |  |  |  | Total number of AFC, % of initial values ([1]; after Adriamycin administration (5 mg/kg i.p.)): 1-2%
2 | CCOC(=O)C1=C(C)OC(OC)C1CC(C)C (stereo not shown) [Example 1] | 300% | 209% | 275% | 453% | 
3 | CCCCCC1C(C(=O)OCC)=C(C)OC1OC (stereo not shown) [Example 2] | 220% | 360% | 331% | 330% | 
4 | CCCCCCCCCC1C(C(=O)OCC)=C(C)OC1OC (stereo not shown) [Example 3] | 250% | 225% | 289% | 326% | 
5 | CCCCCCCCCCCC1C(C(=O)OCC)=C(C)OC1OC (stereo not shown) [Example 4] | 240% | 253% | 330% | 282% | 
6 | CCOC(=O)C1=C(C)OC(OC)C1c1ccccc1 (stereo not shown) [Example 5] | 200% | 202% | 324% | 259% | 
7 | CCOC(=O)C1=C(C)OC(OC)C1c1ccccc1OC (stereo not shown) [Example 6] | 190% | 260% | 229% | 440% | Increase in antibody levels ([1]; dose 2.5 mg/kg, Adriamycin 5 mg/kg i.p. one day before SRBC immunization): ~3 folds
8 | CCOC(=O)C1=C(C)OC(OC)C1c1ccc(Cl)cc1Cl (stereo not shown) [Example 7] | 230% | 269% | 302% | 358% | 
9 | CCOC(=O)C1=C(C(Br)Br)OC(OC)C1c1ccccc1 (stereo not shown) [Example 8] | 260% | 188% | 276% | 271% | 
10 | COC1OC(C)=C(C(=O)O)C1CC(C)C (stereo not shown) [Example 9] | 360% | 230% | 320% | 360% | 
11 | COC1OC(C)=C(C(=O)[O-])C1CC(C)C.[Li+] (stereo not shown) [Example 10] | 360% | 290% | 320% | 470% | 
12 | CCCCCCC1C(C(=O)OCC)=C(C)OC1OC (stereo not shown) [Example 11] | 210% | 245% | 241% | 287% | 
13 | CCCCC1C(C(=O)OCC)=C(C)OC1OC (stereo not shown) [Example 12] | 230% | 251% | 239% | 291% | 
14 | CCOC(=O)C1=C(C)OC(OC)C1c1cccnc1 (stereo not shown) [Example 13] | 180% | 168% | 201% | 191% | 
15 | CCOC(=O)C1=C(C)OC(OC)C1c1cccc(OC)c1 (stereo not shown) [Example 14] | 200% | 135% | 187% | 254% | 
16 | CCOC(=O)C1=C(C)OC(OC)C1c1ccc(OC)cc1 (stereo not shown) [Example 15] | 160% | 291% | 312% | 267% | 
17 | CCOC(=O)C1=C(CC)OC(OC)C1c1ccc(C)cc1C (stereo not shown) [Example 16] | 140% | 165% | 192% | 217% | 
18 | c1ccc([C@H]2CN3CCSC3=N2)cc1 [Levamisol, reference compound] |  | 121% |  |  | Administered dose as % of LD50 [4]: 10 % of LD50; DTH foot pad edema, % of control ([2]; Levamisol positive control, dose 2.5 mg/kg): 240%; Cellular immune response increase ([2]; after Levamisol administration): 240%; Antibody response in Adriamycin immunosuppression model ([1]; Adriamycin-induced immunosuppression): no antibody response; Increase in antibody formation ([3]; Levamisol positive reference, dose 2.5 mg/kg): 20%; Toxic effects (AFC not determined at higher doses) ([3]; mouse, in vivo): ND (toxic effects)

— US20080287532A1, “OXACYCLOPENTENE-2 DERIVATIVES” (priority 2007, published 2008)
